# Test results from patent US7705029B2 (Synta Pharmaceuticals Corp., priority 2004, dated 2010).
# System: IL-2 production in a Human Jurkat Cell Line
# Experiment: Inhibition of IL-2 production in PHA-stimulated Jurkat cells (IL-2 ELISA)
# Format: cell-based
# Details: Homo sapiens, Jurkat, 20 h, read-out: IC50 (concentration at which IL-2 release is inhibited by 50%)
# Method: Jurkat cells (ATCC, Cat# TIB-152) were grown in RPMI1640 medium (ATCC, Cat# 30-2001) containing 10% of FBS (ATCC, Cat# 30-2020). For compound screening, Jurkat cells were plated in 96-well plates at a density of 0.5 million cells per well in RPMI1640 medium containing 1% of FBS. Then, various concentrations of each test compound were added to the cell plates followed by addition of PHA (Sigma, Cat# L-9017) at a final concentration of 2.5 μg/ml to stimulate IL-2 production. Cells were then incubated at 37° C. (+5% CO2) for 20 hours before ELISA assay. After 20 hours incubation, cell plates were centrifuged at 500-800 g for 5 minutes and the supernatants was collected for IL-2 detection using the human IL-2 ELISA kit purchased from Cell Sciences (Cat# 851.500.020). The ELISA assay for IL-2 production was done in 96-well plates using a protocol provided by Cell Sciences.
# The IC50 (i.e., the concentration at which IL-2 release is inhibited by 50%) was determined and the results are shown in the Table. […] The designation “A” means an IC50 less than 0.010 μM; the designation B means an IC50 between 0.010 and 1.0 μM; and the designation “C” mean an IC50 greater than 1 μM.
row,Structure (SMILES),IC50 [nM]
1,N#C/C(=C\c1ccc(-n2nc(C(F)(F)F)cc2OC(F)F)cc1)c1cccc(F)c1F [Compound 1],10 to 1000
2,"N#CC(=Cc1ccc(-n2nc(C(F)(F)F)cc2OC(F)F)cc1)c1ccccc1F [Compound 2, 3-[4-(5-Difluoromethoxy-3-trifluoromethyl-pyrazol-1-yl)-phenyl]-2-(2-fluoro-phenyl)-acrylonitrile]",10 to 1000
3,"N#CC(=Cc1ccc(-n2nc(C(F)(F)F)cc2OC(F)F)cc1)c1cc(F)ccc1F [Compound 3, 3-[4-(5-Difluoromethoxy-3-trifluoromethyl-pyrazol-1-yl)-phenyl]-2-(2,5-difluoro-phenyl)-acrylonitrile]",10 to 1000
4,"N#C/C(=C\c1ccc(-n2nc(C(F)(F)F)cc2C(F)(F)F)cc1)c1cccc(F)c1F [Compound 4, 3-[4-(3,5-Bis-trifluoromethyl-pyrazol-1-yl)-phenyl]-2-(2,3-difluoro-phenyl)-acrylonitrile]",< 10
5,"N#CC(=Cc1ccc(-n2nc(C(F)(F)F)cc2C(F)(F)F)cc1)c1cc(F)ccc1F [Compound 5, 3-[4-(3,5-Bis-trifluoromethyl-pyrazol-1-yl)-phenyl]-2-(2,5-difluoro-phenyl)-acrylonitrile]",< 10
6,"N#CC(=Cc1ccc(-n2nc(C(F)(F)F)cc2C(F)(F)F)cc1)c1ccccc1F [Compound 6, 3-[4-(3,5-Bis-trifluoromethyl-pyrazol-1-yl)-phenyl]-2-(2-fluoro-phenyl)-acrylonitrile]",10 to 1000
7,"N#CC(=Cc1ccc(-n2nc(C(F)(F)F)cc2C(F)(F)F)cc1)c1ccc(F)c(F)c1F [Compound 8, 3-[4-(3,5-Bis-trifluoromethyl-pyrazol-1-yl)-phenyl]-2-(2,3,4-trifluoro-phenyl)-acrylonitrile]",10 to 1000
8,"N#CC(=Cc1ccc(-n2nc(C(F)(F)F)cc2C(F)(F)F)cc1)c1c(F)ccc(F)c1F [Compound 9, 3-[4-(3,5-Bis-trifluoromethyl-pyrazol-1-yl)-phenyl]-2-(2,3,6-trifluoro-phenyl)-acrylonitrile]",< 10
9,"N#CC(=Cc1ccc(-n2nc(C(F)(F)F)cc2C(F)(F)F)cc1)c1cc(F)c(F)c(F)c1 [Compound 10, 3-[4-(3,5-Bis-trifluoromethyl-pyrazol-1-yl)-phenyl]-2-(3,4,5-trifluoro-phenyl)-acrylonitrile]",10 to 1000
10,"N#CC(=Cc1ccc(-n2nc(C(F)(F)F)cc2C(F)(F)F)cc1)c1cc(F)c(F)cc1F [Compound 12, 3-[4-(3,5-Bis-trifluoromethyl-pyrazol-1-yl)-phenyl]-2-(3,4,6-trifluoro-phenyl)-acrylonitrile]",10 to 1000
11,"Cc1cc(C(F)(F)F)n(-c2ccc(/C=C(\C#N)c3cc(F)ccc3F)cc2)n1 [Compound 15, 2-(2,5-Difluoro-phenyl)-3-[4-(3-methyl-5-trifluoromethyl-pyrazol-1-yl)-phenyl]-acrylonitrile]",10 to 1000
12,"N#CC(=Cc1ccc(-n2ccc(C(F)(F)F)n2)cc1)c1ccc(F)cc1F [Compound 16, 2-(2,4-Difluoro-phenyl)-3-[4-(3-trifluoromethyl-pyrazol-1-yl)-phenyl]-acrylonitrile]",> 1000
13,"Cc1cc(C(F)(F)F)n(-c2ccc(C=C(C#N)c3cccc(F)c3F)cc2)n1 [Compound 18, 2-(2,3-Difluoro-phenyl)-3-[4-(3-methyl-5-trifluoromethyl-pyrazol-1-yl)-phenyl]-acrylonitrile]",10 to 1000
14,"Cc1cc(C(F)(F)F)n(-c2ccc(C=C(C#N)c3ccc(F)cc3F)cc2)n1 [Compound 19, 2-(2,4-Difluoro-phenyl)-3-[4-(3-methyl-5-trifluoromethyl-pyrazol-1-yl)-phenyl]-acrylonitrile]",10 to 1000
15,"Cc1cc(C(F)(F)F)n(-c2ccc(C=C(C#N)c3c(F)cccc3F)cc2)n1 [Compound 20, 2-(2,6-Difluoro-phenyl)-3-[4-(3-methyl-5-trifluoromethyl-pyrazol-1-yl)-phenyl]-acrylonitrile]",10 to 1000
16,"Cc1cc(C(F)(F)F)n(-c2ccc(C=C(C#N)c3ccc(F)c(F)c3)cc2)n1 [Compound 21, 2-(3,4-Difluoro-phenyl)-3-[4-(3-methyl-5-trifluoromethyl-pyrazol-1-yl)-phenyl]-acrylonitrile]",10 to 1000
17,"Cc1cc(C(F)(F)F)n(-c2ccc(C=C(C#N)c3cc(F)cc(F)c3)cc2)n1 [Compound 22, 2-(3,5-Difluoro-phenyl)-3-[4-(3-methyl-5-trifluoromethyl-pyrazol-1-yl)-phenyl]-acrylonitrile]",10 to 1000
18,"N#CC(=Cc1ccc(-n2cccn2)cc1)c1ccccc1 [Compound 23, 2-Phenyl-3-(4-pyrazol-1-yl-phenyl)-acrylonitrile]",> 1000
19,"N#CC(=Cc1ccc(-n2cccn2)cc1)c1cc(F)ccc1F [Compound 24, 2-(2,5-Difluoro-phenyl)-3-(4-pyrazol-1-yl-phenyl)-acrylonitrile]",> 1000
20,"N#C/C(=C\c1ccc(-n2nc(C(F)(F)F)cc2C(F)(F)F)cc1)C(=O)c1cccc(F)c1F [Compound 25, 3-[4-(3,5-Bis-trifluoromethyI-pyrazol-1-yl)-phenyl]-2-(2,3-difluoro-benzoyl)-acrylonitrile]",> 1000
21,"N#CC(=Cc1ccc(-n2ccc(-c3cccs3)n2)cc1)C(=O)c1ccccc1 [Compound 28, 2-Benzoyl-3-[4-(3-thiophen-2-yl-pyrazol-1-yl)-phenyl]-acrylonitrile]",> 1000
22,"Cc1ccn(-c2ccc(C=C(C#N)C(=O)c3ccco3)cc2)n1 [Compound 29, 2-(Furan-2-carbonyl)-3-[4-(3-methyl-pyrazol-1-yl)-phenyl]-acrylonitrile]",> 1000
23,"N#CC(=Cc1ccc(-n2cccn2)cc1)C(=O)c1ccccc1 [Compound 30, 2-Benzoyl-3-(4-pyrazol-1-yl-phenyl)-acrylonitrile]",> 1000
24,"N#CC(=Cc1ccc(-n2ccc(-c3ccccc3)n2)cc1)C(=O)c1ccco1 [Compound 31, 2-(Furan-2-carbonyl)-3-[4-(3-phenyl-pyrazol-1-yl)-phenyl]-acrylonitrile]",> 1000
25,"N#CC(=Cc1ccc(-n2nc(C(F)(F)F)cc2C(F)(F)F)cc1)C(=O)c1ccco1 [Compound 33, 3-[4-(3,5-Bis-trifluoromethyl-pyrazol-1-yl)-phenyl]-2-(furan-2-carbonyl)-acrylonitrile]",> 1000
26,"N#CC(=Cc1ccc(-n2nc(C(F)(F)F)cc2C(F)(F)F)cc1)C(=O)c1ccc(F)cc1F [Compound 34, 3-[4-(3,5-Bis-trifluoromethyl-pyrazol-1-yl)-phenyl]-2-(2,4-difluoro-benzoyl)-acrylonitrile]",> 1000
27,"N#CC(=Cc1ccc(-n2ccc(-c3ccccc3)n2)cc1)C(=O)c1cccc(F)c1F [Compound 35, 2-(2,3-Difluoro-benzoyl)-3-[4-(3-phenyl-pyrazol-1-yl)-phenyl]-acrylonitrile]",> 1000

# Same assay, conditions: Jurkat cells, PHA 2.5 μg/ml, 20 hours incubation, human IL-2 ELISA of supernatant; read-out: IC50 (concentration at which IL-2 release is inhibited by 50%)
row,IC50 [nM],Structure (SMILES)
1,> 1000,"N#CC(=Cc1ccc(-n2nc(C(F)(F)F)cc2C(F)(F)F)cc1Cl)c1cccc(F)c1F [Compound 13, 3-[4-(3,5-Bis-trifluoromethyl-pyrazol-1-yl)-2-chloro-phenyl]-2-(2,3-difluoro-phenyl)-acrylonitrile]"
2,> 1000,"N#CC(=Cc1ccccc1-n1nc(C(F)(F)F)cc1C(F)(F)F)c1cccc(F)c1F [Compound 14, 3-[2-(3,5-Bis-trifluoromethyl-pyrazol-1-yl)-phenyl]-2-(2,3-difluoro-phenyl)-acrylonitrile]"
